# Reference: ChEMBL document CHEMBL1201862, “PubChem BioAssay data set” (2004)
#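 Exposure lasted 48 hours, with cells grown in 96-well plates and compounds tested at five concentrations. The concentration for 50% growth inhibition is given as GI50.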 Active and inactive are the calls of the source. Rule as the data show it: active = GI50 up to about 1.1 µM and inactive = higher.
# Experiments:
# Assay in all cases: DTP human tumour cell line panel, 48 h
# [1] = system: A549
# [2] = system: NCI-H23
# [3] = system: MOLT-4
# [4] = system: LXFL 529
# [5] = system: HT-29
# [6] = system: RPMI-8226
# [7] = system: KM12
# [8] = system: M14
# [9] = system: M19-MEL
# [10] = system: XF498
# [11] = system: NCI-H226
# [12] = system: NCI-H522
# [13] = system: SN12C
# [14] = system: SK-MEL-28
# [15] = system: SNB-78
# [16] = system: TK-10
# [17] = system: LOX IMVI
# [18] = system: COLO 205
# [19] = system: HOP-92
# [20] = system: OVCAR-4
# [21] = system: HL-60
# [22] = system: HCT-15
# [23] = system: CAKI-1
# [24] = system: K562
# [25] = system: EKVX
# [26] = system: HCC 2998
# [27] = system: CCRF-CEM
# [28] = system: OVCAR-8
# [29] = system: SNB-75
# [30] = system: SK-OV-3
# [31] = system: SF-539
# [32] = system: UACC-62
# [33] = system: SW-620
# [34] = system: IGROV-1
# [35] = system: SK-MEL-5
# [36] = system: UACC-257
# [37] = system: OVCAR-3
# [38] = system: DMS-273
# [39] = system: DMS-114
# [40] = system: UO-31
# [41] = system: SF-268
# [42] = system: HOP-18
# [43] = system: NCI-H460
# [44] = system: SK-MEL-2
# [45] = system: OVCAR-5
# [46] = system: HOP-62
# [47] = system: HCT-116
# [48] = system: U-251
# [49] = system: KM-20L2
# [50] = system: RXF 393
# [51] = system: SNB-19
# [52] = system: SR
# [53] = system: ACHN
compound,measurement,setting,value
CCN(CC)CSc1nc2ccccc2s1,GI50,[1],> 100 µM (inactive)
same,GI50,[2],> 100 µM (inactive)
same,GI50,[3],> 100 µM (inactive)
same,GI50,[4],> 100 µM (inactive)
same,GI50,[5],> 100 µM (inactive)
same,GI50,[6],> 100 µM (inactive)
same,GI50,[7],> 100 µM (inactive)
same,GI50,[8],> 100 µM (inactive)
same,GI50,[9],> 100 µM (inactive)
same,GI50,[10],> 100 µM (inactive)
same,GI50,[11],> 100 µM (inactive)
same,GI50,[12],> 100 µM (inactive)
same,GI50,[13],> 100 µM (inactive)
same,GI50,[14],> 100 µM (inactive)
same,GI50,[15],> 100 µM (inactive)
same,GI50,[16],> 100 µM (inactive)
same,GI50,[17],> 100 µM (inactive)
same,GI50,[18],> 100 µM (inactive)
same,GI50,[19],> 100 µM (inactive)
same,GI50,[20],> 100 µM (inactive)
same,GI50,[21],> 100 µM (inactive)
same,GI50,[22],> 100 µM
same,GI50,[23],> 100 µM (inactive)
same,GI50,[24],> 100 µM (inactive)
same,GI50,[25],> 100 µM (inactive)
same,GI50,[26],> 100 µM (inactive)
same,GI50,[27],> 100 µM (inactive)
same,GI50,[28],> 100 µM (inactive)
same,GI50,[29],> 100 µM (inactive)
same,GI50,[30],> 100 µM (inactive)
same,GI50,[31],> 100 µM (inactive)
same,GI50,[32],> 100 µM (inactive)
same,GI50,[33],> 100 µM (inactive)
same,GI50,[34],> 100 µM (inactive)
same,GI50,[35],> 100 µM (inactive)
same,GI50,[36],> 100 µM (inactive)
same,GI50,[37],> 100 µM (inactive)
same,GI50,[38],> 100 µM (inactive)
same,GI50,[39],> 100 µM (inactive)
CCc1nnc(-c2nsc3ccccc23)s1,GI50,[1],> 100 µM (inactive)
same,GI50,[2],> 100 µM (inactive)
same,GI50,[3],38.5 µM (inactive)
same,GI50,[4],> 100 µM (inactive)
same,GI50,[5],> 100 µM (inactive)
same,GI50,[6],45.4 µM (inactive)
same,GI50,[7],> 100 µM (inactive)
same,GI50,[40],34 µM (inactive)
same,GI50,[8],> 100 µM (inactive)
same,GI50,[41],> 100 µM (inactive)
same,GI50,[42],> 100 µM (inactive)
same,GI50,[13],> 100 µM (inactive)
same,GI50,[43],> 100 µM (inactive)
same,GI50,[44],> 100 µM (inactive)
same,GI50,[14],> 100 µM (inactive)
same,GI50,[15],> 100 µM (inactive)
same,GI50,[16],> 100 µM (inactive)
same,GI50,[17],> 100 µM (inactive)
same,GI50,[18],> 100 µM (inactive)
same,GI50,[19],69.5 µM (inactive)
same,GI50,[20],> 100 µM (inactive)
same,GI50,[21],> 100 µM (inactive)
same,GI50,[45],> 100 µM (inactive)
same,GI50,[22],72.4 µM
same,GI50,[24],54.7 µM (inactive)
same,GI50,[25],23 µM (inactive)
same,GI50,[26],> 100 µM (inactive)
same,GI50,[27],42.5 µM (inactive)
same,GI50,[28],> 100 µM (inactive)
same,GI50,[29],35.9 µM (inactive)
same,GI50,[46],> 100 µM (inactive)
same,GI50,[31],> 100 µM (inactive)
same,GI50,[47],> 100 µM (inactive)
same,GI50,[48],> 100 µM (inactive)
same,GI50,[49],63.5 µM (inactive)
same,GI50,[32],> 100 µM (inactive)
same,GI50,[33],> 100 µM (inactive)
same,GI50,[50],> 100 µM (inactive)
same,GI50,[51],> 100 µM (inactive)
same,GI50,[34],76.9 µM (inactive)
same,GI50,[35],> 100 µM (inactive)
same,GI50,[52],53 µM (inactive)
same,GI50,[53],> 100 µM (inactive)
same,GI50,[36],> 100 µM (inactive)
same,GI50,[37],24.1 µM (inactive)
same,GI50,[38],> 100 µM (inactive)
same,GI50,[39],> 100 µM (inactive)
